# Experimental data from ChEMBL document CHEMBL1201862, “PubChem BioAssay data set” (2004).
#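 Cultured in 96-well plates, cells were exposed to test compound for 48 hours across five concentrations. Abbreviation: GI50, concentration required for 50% inhibition of growth.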 Calls of active or inactive are those of the source. No stated cut-off is given here; in the data, active = GI50 up to about 1.1 µM and inactive = higher.
# Columns and labels:
# Assay in all cases: growth of human tumour cells (NCI), 48 h
# MDA-MB-231 = tested on: MDA-MB-231
# HCC 2998 = tested on: HCC 2998
# K562 = tested on: K562
# SW-620 = tested on: SW-620
# DU-145 = tested on: DU-145
# LOX IMVI = tested on: LOX IMVI
# IGROV-1 = tested on: IGROV-1
# NCI-H226 = tested on: NCI-H226
# EKVX = tested on: EKVX
# HL-60 = tested on: HL-60
# SF-539 = tested on: SF-539
# M14 = tested on: M14
# Hs-578T = tested on: Hs-578T
# SK-MEL-28 = tested on: SK-MEL-28
# MDA-N = tested on: MDA-N
# SF-295 = tested on: SF-295
# SF-268 = tested on: SF-268
# HCT-15 = tested on: HCT-15
# UACC-257 = tested on: UACC-257
# HOP-62 = tested on: HOP-62
# SNB-75 = tested on: SNB-75
# CAKI-1 = tested on: CAKI-1
# T47D = tested on: T47D
# SN12C = tested on: SN12C
# 786-0 = tested on: 786-0
# SK-MEL-5 = tested on: SK-MEL-5
# NCI-H23 = tested on: NCI-H23
# MCF7 = tested on: MCF7
# RPMI-8226 = tested on: RPMI-8226
# ACHN = tested on: ACHN
# UACC-62 = tested on: UACC-62
# MOLT-4 = tested on: MOLT-4
# A498 = tested on: A498
# MDA-MB-435 = tested on: MDA-MB-435
# SK-OV-3 = tested on: SK-OV-3
# CCRF-CEM = tested on: CCRF-CEM
# NCI-H460 = tested on: NCI-H460
# HCT-116 = tested on: HCT-116
# UO-31 = tested on: UO-31
# A549 = tested on: A549
# NCI-H522 = tested on: NCI-H522
# KM12 = tested on: KM12
# TK-10 = tested on: TK-10
# COLO 205 = tested on: COLO 205
# HT-29 = tested on: HT-29
# OVCAR-8 = tested on: OVCAR-8
# PC-3 = tested on: PC-3
# BT-549 = tested on: BT-549
# Malme-3M = tested on: Malme-3M
# SR = tested on: SR
# SNB-19 = tested on: SNB-19
# OVCAR-5 = tested on: OVCAR-5
# OVCAR-4 = tested on: OVCAR-4
# SK-MEL-2 = tested on: SK-MEL-2
# HOP-92 = tested on: HOP-92
# NCI/ADR-RES = tested on: NCI/ADR-RES
# RXF 393 = tested on: RXF 393
# OVCAR-3 = tested on: OVCAR-3
# U-251 = tested on: U-251
structure (smiles),measurement,setting,value
COc1cccc(C2SC(=N)Nc3c2c(C)nn3C(=O)Cc2ccccc2)c1 (stereo not given),GI50,MDA-MB-231,> 100 µM (inactive)
same,GI50,HCC 2998,> 100 µM (inactive)
same,GI50,K562,> 100 µM (inactive)
same,GI50,SW-620,> 100 µM (inactive)
same,GI50,DU-145,> 100 µM (inactive)
same,GI50,LOX IMVI,> 100 µM (inactive)
same,GI50,IGROV-1,> 100 µM (inactive)
same,GI50,NCI-H226,> 100 µM (inactive)
same,GI50,EKVX,> 100 µM (inactive)
same,GI50,HL-60,> 100 µM (inactive)
same,GI50,SF-539,> 100 µM (inactive)
same,GI50,M14,> 100 µM (inactive)
same,GI50,Hs-578T,> 100 µM (inactive)
same,GI50,SK-MEL-28,> 100 µM (inactive)
same,GI50,MDA-N,> 100 µM (inactive)
same,GI50,SF-295,> 100 µM (inactive)
same,GI50,SF-268,> 100 µM (inactive)
same,GI50,HCT-15,> 100 µM
same,GI50,UACC-257,> 100 µM (inactive)
same,GI50,HOP-62,> 100 µM (inactive)
same,GI50,SNB-75,51.5 µM (inactive)
same,GI50,CAKI-1,> 100 µM (inactive)
same,GI50,T47D,> 100 µM (inactive)
same,GI50,SN12C,> 100 µM (inactive)
same,GI50,786-0,> 100 µM (inactive)
same,GI50,SK-MEL-5,> 100 µM (inactive)
same,GI50,NCI-H23,> 100 µM (inactive)
same,GI50,MCF7,39.8 µM (inactive)
same,GI50,RPMI-8226,> 100 µM (inactive)
same,GI50,ACHN,> 100 µM (inactive)
same,GI50,UACC-62,> 100 µM (inactive)
same,GI50,MOLT-4,> 100 µM (inactive)
same,GI50,A498,> 100 µM (inactive)
same,GI50,MDA-MB-435,> 100 µM (inactive)
same,GI50,SK-OV-3,> 100 µM (inactive)
same,GI50,CCRF-CEM,> 100 µM (inactive)
same,GI50,NCI-H460,> 100 µM (inactive)
same,GI50,HCT-116,> 100 µM (inactive)
same,GI50,UO-31,> 100 µM (inactive)
same,GI50,A549,> 100 µM (inactive)
same,GI50,NCI-H522,> 100 µM (inactive)
same,GI50,KM12,> 100 µM (inactive)
same,GI50,TK-10,> 100 µM (inactive)
same,GI50,COLO 205,> 100 µM (inactive)
same,GI50,HT-29,> 100 µM (inactive)
same,GI50,OVCAR-8,> 100 µM (inactive)
same,GI50,PC-3,> 100 µM (inactive)
same,GI50,BT-549,> 100 µM (inactive)
same,GI50,Malme-3M,> 100 µM (inactive)
same,GI50,SR,> 100 µM (inactive)
same,GI50,SNB-19,> 100 µM (inactive)
Cc1c(S(=O)(=O)N/C(N)=N/c2ccc(Cl)cc2)sc2ccc(Cl)cc12,GI50,MDA-MB-231,16 µM (inactive)
same,GI50,K562,36.2 µM (inactive)
same,GI50,OVCAR-5,18.8 µM (inactive)
same,GI50,SW-620,22 µM (inactive)
same,GI50,DU-145,18.5 µM (inactive)
same,GI50,LOX IMVI,20 µM (inactive)
same,GI50,IGROV-1,16.1 µM (inactive)
same,GI50,NCI-H226,20.4 µM (inactive)
same,GI50,EKVX,15.9 µM (inactive)
same,GI50,HL-60,25.8 µM (inactive)
same,GI50,SF-539,23.9 µM (inactive)
same,GI50,M14,17.3 µM (inactive)
same,GI50,Hs-578T,21.7 µM (inactive)
same,GI50,SK-MEL-28,21.4 µM (inactive)
same,GI50,MDA-N,20.1 µM (inactive)
same,GI50,SF-295,20.7 µM (inactive)
same,GI50,OVCAR-4,22.2 µM (inactive)
same,GI50,SF-268,17 µM (inactive)
same,GI50,HCT-15,19.4 µM
same,GI50,UACC-257,18.1 µM (inactive)
same,GI50,HOP-62,18.5 µM (inactive)
same,GI50,SK-MEL-2,17.2 µM (inactive)
same,GI50,HOP-92,22.6 µM (inactive)
same,GI50,NCI/ADR-RES,19.5 µM (inactive)
same,GI50,SNB-75,19.6 µM (inactive)
same,GI50,T47D,29.7 µM (inactive)
same,GI50,SN12C,15.7 µM (inactive)
same,GI50,786-0,17.1 µM (inactive)
same,GI50,SK-MEL-5,33.6 µM (inactive)
same,GI50,NCI-H23,18 µM (inactive)
same,GI50,MCF7,17.8 µM (inactive)
same,GI50,RPMI-8226,33.7 µM (inactive)
same,GI50,ACHN,17 µM (inactive)
same,GI50,UACC-62,16.5 µM (inactive)
same,GI50,RXF 393,48.6 µM (inactive)
same,GI50,MOLT-4,28.6 µM (inactive)
same,GI50,A498,15.6 µM (inactive)
same,GI50,SK-OV-3,26.1 µM (inactive)
same,GI50,NCI-H460,16.9 µM (inactive)
same,GI50,HCT-116,15.9 µM (inactive)
same,GI50,UO-31,15.3 µM (inactive)
same,GI50,A549,19.1 µM (inactive)
same,GI50,NCI-H522,14 µM (inactive)
same,GI50,KM12,28.1 µM (inactive)
same,GI50,TK-10,19.9 µM (inactive)
same,GI50,COLO 205,17.2 µM (inactive)
same,GI50,HT-29,19.8 µM (inactive)
same,GI50,OVCAR-3,18.2 µM (inactive)
same,GI50,OVCAR-8,19.3 µM (inactive)
same,GI50,U-251,16.3 µM (inactive)
same,GI50,PC-3,14.7 µM (inactive)
same,GI50,BT-549,24.4 µM (inactive)
same,GI50,Malme-3M,17.1 µM (inactive)
same,GI50,SR,47.3 µM (inactive)
same,GI50,SNB-19,21.4 µM (inactive)
O=C1CSCc2sccc21,GI50,MDA-MB-231,> 100 µM (inactive)
same,GI50,HCC 2998,15 µM (inactive)
same,GI50,K562,> 100 µM (inactive)
same,GI50,OVCAR-5,> 100 µM (inactive)
same,GI50,SW-620,> 100 µM (inactive)
same,GI50,DU-145,> 100 µM (inactive)
same,GI50,IGROV-1,> 100 µM (inactive)
same,GI50,NCI-H226,> 100 µM (inactive)
same,GI50,EKVX,> 100 µM (inactive)
same,GI50,HL-60,> 100 µM (inactive)
same,GI50,SF-539,> 100 µM (inactive)
same,GI50,M14,> 100 µM (inactive)
same,GI50,Hs-578T,> 100 µM (inactive)
same,GI50,SK-MEL-28,> 100 µM (inactive)
same,GI50,MDA-N,> 100 µM (inactive)
same,GI50,SF-295,> 100 µM (inactive)
same,GI50,OVCAR-4,> 100 µM (inactive)
same,GI50,SF-268,> 100 µM (inactive)
same,GI50,HCT-15,> 100 µM
same,GI50,UACC-257,> 100 µM (inactive)
same,GI50,HOP-62,> 100 µM (inactive)
same,GI50,SK-MEL-2,> 100 µM (inactive)
same,GI50,NCI/ADR-RES,> 100 µM (inactive)
same,GI50,SNB-75,52.8 µM (inactive)
same,GI50,CAKI-1,> 100 µM (inactive)
same,GI50,T47D,> 100 µM (inactive)
same,GI50,SN12C,> 100 µM (inactive)
same,GI50,786-0,> 100 µM (inactive)
same,GI50,SK-MEL-5,> 100 µM (inactive)
same,GI50,NCI-H23,> 100 µM (inactive)
same,GI50,MCF7,> 100 µM (inactive)
same,GI50,ACHN,> 100 µM (inactive)
same,GI50,UACC-62,> 100 µM (inactive)
same,GI50,RXF 393,< 0.01 µM (active)
same,GI50,MOLT-4,> 100 µM (inactive)
same,GI50,A498,> 100 µM (inactive)
same,GI50,SK-OV-3,> 100 µM (inactive)
same,GI50,CCRF-CEM,> 100 µM (inactive)
same,GI50,NCI-H460,> 100 µM (inactive)
same,GI50,HCT-116,> 100 µM (inactive)
same,GI50,UO-31,> 100 µM (inactive)
same,GI50,A549,> 100 µM (inactive)
same,GI50,NCI-H522,> 100 µM (inactive)
same,GI50,KM12,> 100 µM (inactive)
same,GI50,TK-10,> 100 µM (inactive)
same,GI50,COLO 205,> 100 µM (inactive)
same,GI50,HT-29,> 100 µM (inactive)
same,GI50,OVCAR-3,> 100 µM (inactive)
same,GI50,OVCAR-8,> 100 µM (inactive)
same,GI50,U-251,> 100 µM (inactive)
same,GI50,PC-3,> 100 µM (inactive)
same,GI50,BT-549,> 100 µM (inactive)
same,GI50,SR,> 100 µM (inactive)
same,GI50,SNB-19,> 100 µM (inactive)
